pIC50: −log10 of the molar value.
These compounds were tested against T1, wt human LRRK2, catalytic site (Homo sapiens, UniProt Q5S007) (assay: TR-FRET LanthaScreen Tb Kinase Activity Assay (Example 71)). Settings: compounds of Table 4, 38 uM ATP, method names only wt human LRRK2, read-out: IC50, Inhibitory Activity Toward LRRK2 (Wt) and LRRK2 (G2019).
T1 construct: wt human LRRK2, catalytic site; purchased ThermoFisher/USA
T1 sequence (Q5S007 1879-2138 limits assumed): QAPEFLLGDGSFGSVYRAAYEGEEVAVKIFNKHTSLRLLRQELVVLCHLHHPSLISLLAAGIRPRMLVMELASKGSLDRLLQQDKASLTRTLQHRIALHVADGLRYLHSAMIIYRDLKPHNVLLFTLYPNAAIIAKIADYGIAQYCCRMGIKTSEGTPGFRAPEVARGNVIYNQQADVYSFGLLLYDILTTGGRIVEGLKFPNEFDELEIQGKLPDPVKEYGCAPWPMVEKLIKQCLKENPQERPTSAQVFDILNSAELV
Assay type: biochemical
Protocol: The compounds in Table 4 were tested for their inhibitory effect on LRRK2 kinases according to the following procedures.
The basic protocol for TR-FRET LanthaScreen Tb Kinase Activity Assay inhibitor studies were performed as follows. LanthaScreen Kinase Activity Assays (ThermoFisher/USA) to evaluate inhibitors were performed by addition of 100 nl of test compound in corresponding DMSO dilutions/5 μl of kinase/fluorescein-ERM(LRRKtide) peptide mixture, 5 μl of ATP into 384 well small volume plates. After incubation for 120 minutes at room temperature, the detection reagents containing Tb-anti-pLRRKtide antibody were added to monitor phosphrylation level of peptide. Then, after 60 min minutes incubation at room temperature plates were read in Envision. Data analysis of emission ratios was according to LanthaScreen Tb Kinase Activity Assay protocol.
Kinase and assay components were adjusted to final concentrations according to the kit protocol. For LRRK2: 2 nM wt human LRRK2, catalytic site, catalytic site (ThermoFisher/USA), 400 nM peptide, 38 uM ATP in 1× Kinase Buffer A.
Basic protocol for TR-FRET LanthaScreen Tb Kinase Activity Assay inhibitor studies involved two steps:
Enzymatic step: Addition of 100 nl of test compound in corresponding DMSO dilutions, 5 μl of kinase/substrate mixture, 5 μl of ATP into 384 well small volume plates. Incubation for 120 minutes at room temperature.
Detection step: Addition of 10 μl EDTA & antibody, read plate after 60 minutes. Data analysis of emission ratios according to KinEASE assay protocol.
With Fc1cccc(C(F)F)c1C1=Nc2cn[nH]c2-c2cnn3c2N1CCC3 [Compound 381, 8-[2-(difluoromethyl)-6-fluoro-phenyl]-3,4,7,9,13,14-hexazatetracyclo[7.6.1.02,6.013,16]hexadeca-1(16),2(6),4,7,14-pentaene] the pIC50 was 7.00 to 8.00. Work on Cc1n[nH]c2c1N=C(c1c(F)cccc1F)N1CCCn3ncc-2c31 [Compound 370, 9-(2,6-difluorophenyl)-1-methyl-3,6,7,8-tetrahydro-2,3,5,5a,8a,10-hexaazabenzo[cd]cyclopenta[h]azulene] yielded a pIC50 of over 8.00. For Fc1ccc(Br)c(Cl)c1C1=Nc2cn[nH]c2-c2cnn3c2N1CC3 [Compound 392, 3-(3-bromo-2-chloro-6-fluorophenyl)-2,7-dihydro-1H-2a,4,6,7,9,9a-hexaazadicyclopenta[cd,f]azulene], the pIC50 was over 8.00. Compound C[C@@H]1CN2C(c3c(F)cccc3F)=Nc3cn[nH]c3-c3cnn(c32)C1 (single isomer, unassigned) [Compound 349] has a pIC50 of over 8.00. With C[C@@H]1CCN2C(c3c(F)cccc3F)=Nc3cn[nH]c3-c3cnn1c32 (single isomer, unassigned) [Compound 346] the pIC50 was 7.00 to 8.00. COc1cc(F)c(C2=Nc3cn[nH]c3-c3cc(C(F)(F)F)cc4[nH]cc2c34)c(F)c1 [Compound 408] gave a pIC50 of 7.00 to 8.00. Cc1nc2c3n1CCCN3C(c1c(F)cccc1F)=Nc1cn[nH]c1-2 [Compound 352] was tested, and the pIC50 was under 6.00. For OCc1cc(F)c(C2=Nc3cn[nH]c3-c3cc(C(F)(F)F)cc4[nH]cc2c34)c(F)c1 [Compound 406, (3,5-difluoro-4-(9-(trifluoromethyl)-1,7-dihydropyrazolo[3′,4′:6,7]azepino[3,4,5-cd]indol-3-yl)phenyl)methanol], the pIC50 was over 8.00. Compound Fc1ccc(Br)c(Cl)c1C1=Nc2cn[nH]c2-c2cnn3c2N1CCC3 [Compound 355, 8-(3-bromo-2-chloro-6-fluoro-phenyl)-3,4,7,9,13,14-hexazatetracyclo-[7.6.1.02,6.013,16]hexadeca-1(16),2(6),4,7,14-pentaene] has a pIC50 of over 8.00. Work on Cc1n[nH]c2c1N=C(c1c(F)cccc1Cl)N1CCn3ncc-2c31 [Compound 395, 3-(2-chloro-6-fluorophenyl)-5-methyl-2,7-dihydro-1H-2a,4,6,7,9,9a-hexaazadicyclopenta[cd,f]azulene] yielded a pIC50 of over 8.00. With Fc1cc2ncccc2c(F)c1C1=Nc2cn[nH]c2-c2cnn3c2N1CC3 [Compound 404, 3-(5,7-difluoroquinolin-6-yl)-2,7-dihydro-1H-2a,4,6,7,9,9a-hexaazadicyclopenta[cd,f]azulene] the pIC50 was 7.00 to 8.00. With N#Cc1ccc(F)c(C2=Nc3cn[nH]c3-c3cnn4c3N2CC4)c1F [Compound 394, 3-(2,7-dihydro-1H-2a,4,6,7,9,9a-hexaazadicyclopenta[cd,f]azulen-3-yl)-2,4-difluorobenzonitrile] the pIC50 was over 8.00. Work on Fc1cncc(F)c1C1=Nc2cn[nH]c2-c2cnn3c2N1CCC3 [Compound 376, 8-(3,5-difluoro-4-pyridyl)-3,4,7,9,13,14-hexazatetracyclo[7.6.1.02,6.013,16]hexadeca-1(16),2(6),4,7,14-pentaene] yielded a pIC50 of 7.00 to 8.00. Cc1nn2c3c1CCCN3C(c1c(F)cccc1F)=Nc1cn[nH]c1-2 [Compound 374, 8-(2,6-difluorophenyl)-14-methyl-1,3,4,7,9,15-hexazatetracyclo[7.6.1.02,6.013,16]hexadeca-2(6),4,7,13(16),14-pentaene] gave a pIC50 of 6.00 to 7.00. With C[C@H]1CN2C(c3c(F)cccc3F)=Nc3cn[nH]c3-c3cnn(c32)C1 (single isomer, unassigned) [Compound 350] the pIC50 was 7.00 to 8.00. With N#Cc1ccc(F)c(C2=Nc3cn[nH]c3-c3cc(C(F)(F)F)cc4[nH]cc2c34)c1F [Compound 405, 2,4-difluoro-3-(9-(trifluoromethyl)-1,7-dihydropyrazolo[3′,4′:6,7]azepino[3,4,5-cd]indol-3-yl)benzonitrile] the pIC50 was over 8.00. In the case of Cc1n[nH]c2c1N=C(c1c(F)cccc1F)N1CCn3ncc-2c31 [Compound 372, 8-(2,6-difluorophenyl)-5-methyl-3,4,7,9,12,13-hexazatetrahydro[7.5.1.02,6.012,15]pentadeca-1(15),2,5,7,13-pentaene], the pIC50 was over 8.00. Fc1ccc(Cl)c(F)c1C1=Nc2cn[nH]c2-c2cnn3c2N1CC3 [Compound 390, 3-(3-chloro-2,6-difluorophenyl)-2,7-dihydro-1H-2a,4,6,7,9,9a-hexaazadicyclopenta[cd,f]azulene] showed a pIC50 of over 8.00. Fc1cc(Cl)cc(F)c1C1=Nc2cn[nH]c2-c2cnn3c2N1CCC3 [Compound 385, 9-(4-chloro-2,6-difluorophenyl)-3,6,7,8-tetrahydro-2,3,5,5a,8a,10-hexaazabenzo[cd]cyclopenta[h]azulene] was tested, and the pIC50 was 7.00 to 8.00. In the case of Cc1cccc(F)c1C1=Nc2cn[nH]c2-c2cnn3c2N1CC3 [Compound 382, 8-(2-fluoro-6-methyl-phenyl)-3,4,7,9,12,13-hexazatetracyclo[7.5.1.02,6.012,15]pentadeca-1(15),2(6),4,7,13-pentaene], the pIC50 was over 8.00. In the case of OCc1cc(F)c(C2=Nc3cn[nH]c3-c3cnn4c3N2CCC4)c(F)c1 [Compound 359, (3,5-difluoro-4-(3,6,7,8-tetrahydro-2,3,5,5a,8a,10-hexaazabenzo[cd]cyclopenta[h]azulen-9-yl)phenyl)methanol], the pIC50 was 7.00 to 8.00. Work on Fc1ccc(C2CC2)c(F)c1C1=Nc2cn[nH]c2-c2cnn3c2N1CC3 [Compound 399, 3-(3-cyclopropyl-2,6-difluorophenyl)-2,7-dihydro-1H-2a,4,6,7,9,9a-hexaazadicyclopenta[cd,f]azulene] yielded a pIC50 of over 8.00. Work on Fc1cccc(F)c1C1=Nc2cn[nH]c2-c2cnn3c2N1CC3 [Compound 373, 3-(2,6-difluorophenyl)-2,7-dihydro-1H-2a,4,6,7,9,9a-hexaazadicyclopenta[cd,f]azulene] yielded a pIC50 of over 8.00. CC1CCN2C(c3c(F)cccc3F)=Nc3cn[nH]c3-c3cnn1c32 (centres unmarked) [Compound 345, 9-(2,6-difluorophenyl)-6-methyl-3,6,7,8-tetrahydro-2,3,5,5a,8a,10-hexaazabenzo[cd]cyclopenta[h]azulene] showed a pIC50 of over 8.00. Fc1cccc(F)c1C1=Nc2cn[nH]c2-c2cnn3c2N1CCCC3 [Compound 344, 10-(2,6-difluorophenyl)-6,7,8,9-tetrahydro-3H-2,3,5,5a,9a,11-hexaazadicyclopenta[b,kl]heptalene] showed a pIC50 of 7.00 to 8.00. For Clc1ccccc1C1=Nc2cn[nH]c2-c2cnn3c2N1CCCC3 [Compound 364, 10-(2-chlorophenyl)-6,7,8,9-tetrahydro-3H-2,3,5,5a,9a,11-hexaazadicyclopenta[b,kl]heptalene], the pIC50 was 6.00 to 7.00. For Fc1cccc(C2CC2)c1C1=Nc2cn[nH]c2-c2cnn3c2N1CCC3 [Compound 356, 9-(2-cyclopropyl-6-fluorophenyl)-3,6,7,8-tetrahydro-2,3,5,5a,8a,10-hexaazabenzo[cd]cyclopenta[h]azulene], the pIC50 was 7.00 to 8.00. In the case of Cc1cc(F)c(C2=Nc3cn[nH]c3-c3cnn4c3N2CCC4)c(F)c1 [Compound 343, 9-(2,6-difluoro-4-methylphenyl)-3,6,7,8-tetrahydro-2,3,5,5a,8a,10 hexaazabenzo[cd]cyclopenta[h]azulene], the pIC50 was over 8.00. Work on Fc1cccc(F)c1C1=Nc2c(Cl)n[nH]c2-c2cnn3c2N1CC3 [Compound 375, 5-chloro-3-(2,6-difluorophenyl)-2,7-dihydro-1H-2a,4,6,7,9,9a-hexaazadicyclopenta[cd,f]azulene] yielded a pIC50 of over 8.00. In the case of Fc1cccc(Cl)c1C1=Nc2cn[nH]c2-c2cnn3c2N1CC3 [Compound 383, 8-(2-chloro-6-fluoro-phenyl)-3,4,7,9,12,13-hexazatetracyclo[7.5.1.02,6.012,15]pentadec-1(15),2(6),4,7,13-pentaen], the pIC50 was over 8.00. Compound Fc1cccnc1C1=Nc2cn[nH]c2-c2cnn3c2N1CCCC3 [Compound 365, 10-(3-fluoropyridin-2-yl)-6,7,8,9-tetrahydro-3H-2,3,5,5a,9a,11-hexaazadicyclopenta[b,kl]heptalene] has a pIC50 of under 6.00. Fc1cc(Cl)cc(F)c1C1=Nc2cn[nH]c2-c2cnn3c2N1CC3 [Compound 388, 3-(4-chloro-2,6-difluorophenyl)-2,7-dihydro-1H-2a,4,6,7,9,9a-hexaazadicyclopenta[cd,f]azulene] gave a pIC50 of 7.00 to 8.00.

From patent US20240067655A1 (NEURON23, INC., priority 2020, published 2024)
